Entries after “also recorded” stand apart in the source; their conditions may differ.
Columns and labels:
[1] = Permeation through human abdominal skin in a flow-through cell; assay type: in vitro ADME; settings: for average dose released by human abdominal skin after 24 hours: mean of 3 independent experiments, 5% suspension in aqueous 0.05% polysorbate 80 solution, dissected skin approx. 300 μm, approx. 19.7 mm^2, 34° C., receptor fluid pH 7.35; for skin penetration compared with CMA (times lower) / skin permeability / skin penetration compared with CMA (in words): relative to CMA
Excerpt: Determination of Permeation of Chlormadinone Acetate (CMA) and 3β-Hydroxychlormadinone Acetate Through Human Abdominal Skin
Fragments of human abdominal skin arising during stomach reduction operations were placed in a Petri dish with dissection solution (Na^+: 144 mmol/l, K^+: 5.9 mmol/l, Ca^2+: 3.7 mmol/l, Cl,^−: 157 mmol/l). The skin fragments were reduced in thickness from the corium side, in several steps, down to a layer thickness of approx. 300 μm, while being kept moist with the dissection solution. Mechanically stable dissected skin was thus obtained, consisting of epidermis with approx. 150-200 μm of cutis. The layer thickness of the dissected skin fragments was determined by measuring with an external screw-type micrometer made by MITUTOYO. The area of the dissected skin fragments used amounted to approx. 19.7 mm^2.
Permeation of CMA respectively 3β-hydroxychlormadinone acetate through human abdominal skin was determined in a flow-through cell, which is illustrated schematically in FIG. 1. A receptor fluid (1) was here pumped past the underside of the dissected skin (2) with a peristaltic pump at a rate of 270 μl per hour. The dissected skin was clamped between the upper part (3) and the lower part (4) of the permeability cell (5). From above, vehicle with 3β-hydroxychlormadinone acetate (5% suspension in aqueous 0.05% polysorbate 80 solution) or chlormadinone acetate (5% suspension in aqueous 0.05% polysorbate 80 solution) was applied in each case to the skin, which then diffused through the dissected skin (2) into the receptor fluid (1). The dissected skin was moistened by a stationary donor fluid (9), which is situated in a reservoir (7). The internal diameter of the receptor fluid feed line (6) was 0.6 mm, and the receptor fluid volume below the skin amounted to approx. 80 μl. The receptor fluid (1) was analysed at fixed intervals by means of a fraction collector (8) and then by HPLC. These experiments allowed a quantitative statement to be made about the amount of substance diffused as a function of time.
An aqueous, isotonic tris buffer (20 mmol/l) with 20% ethanol was used as the receptor fluid and adjusted with NaCl to 310 mosmol (0.9 wt. %). The pH value of the receptor fluid was 7.35. A hole punch was used to punch a piece corresponding to the area of the dissected skin out of a plaster containing the active ingredient to be investigated, said piece being stuck to the dissected skin. […] The experiments were carried out at a test temperature of 34° C. In each case 3 independent series of measurements were made with CMA respectively 3β-hydroxychlormadinone acetate.

[2] = Antiandrogenic efficacy compared with CMA; settings: no method described

SMILES | average dose released by human abdominal skin after 24 hours [1] [µg] | antiandrogenic efficacy relative to CMA (ratio) [2] [times] | skin penetration compared with CMA (times lower) [1] [times] | skin permeability / skin penetration compared with CMA (in words) [1]
CC(=O)O[C@]1(C(C)=O)CC[C@H]2[C@@H]3C=C(Cl)C4=CC(=O)CC[C@]4(C)[C@H]3CC[C@@]21C [CMA, chlormadinone acetate] | 4.4 | – | – | –
CC(=O)O[C@]1(C(C)=O)CC[C@H]2[C@@H]3C=C(Cl)C4=C[C@H](O)CC[C@]4(C)[C@H]3CC[C@@]21C [3α-hydroxychlormadinone acetate, 17α-acetoxychloropregna-4,6-dien-3α-ol-20-one] | – | 0.7 | 6 | far lesser degree of skin penetration compared with CMA
CC(=O)O[C@]1(C(C)=O)CC[C@H]2[C@@H]3C=C(Cl)C4=C[C@@H](O)CC[C@]4(C)[C@H]3CC[C@@]21C [3β-hydroxychlormadinone acetate, 17α-acetoxychloropregna-4,6-dien-3β-ol-20-one] | 0.7 | 0.7 | 6 | far lesser degree of skin penetration compared with CMA; also recorded: far less than that of CMA
